Assay results as given in ChEMBL document CHEMBL1142038, “Novel and potent NPY5 receptor antagonists derived from virtual screening and iterative parallel chemistry design” (Bioorg Med Chem Lett, 2005).

Biological target: T1, Neuropeptide Y receptor type 5 (Mus musculus, UniProt O70342)
T1 sequence (O70342 whole entry): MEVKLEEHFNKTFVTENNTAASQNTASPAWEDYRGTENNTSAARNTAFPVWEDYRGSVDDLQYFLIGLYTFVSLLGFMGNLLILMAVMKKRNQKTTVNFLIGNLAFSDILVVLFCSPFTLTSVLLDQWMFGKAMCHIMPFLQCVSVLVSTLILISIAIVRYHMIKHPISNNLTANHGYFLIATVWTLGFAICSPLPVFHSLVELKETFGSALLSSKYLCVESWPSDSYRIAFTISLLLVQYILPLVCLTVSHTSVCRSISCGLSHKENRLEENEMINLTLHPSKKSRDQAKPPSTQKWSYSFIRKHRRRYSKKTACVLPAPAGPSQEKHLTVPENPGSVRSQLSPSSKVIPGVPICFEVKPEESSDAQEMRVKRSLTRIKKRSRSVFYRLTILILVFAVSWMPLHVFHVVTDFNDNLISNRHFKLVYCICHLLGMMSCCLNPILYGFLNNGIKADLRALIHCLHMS
Assay: Inhibitory concentration against Neuropeptide Y receptor type 5 in mouse; Inactive; call rule not given here

IC50	SMILES
Not Active	O=C(c1cnc(Nc2cc(Cl)cc(Cl)c2)s1)c1ccccc1F

Biological target: T1, Neuropeptide Y receptor type 5
Assay: Inhibitory concentration against Neuropeptide Y receptor type 5 in mouse
Format: organism-based

SMILES	IC50 [nM]
Cc1cc(C(=O)c2cnc(Nc3cccc(C(F)(F)F)c3)s2)c(C)s1	395
O=C(c1cnc(Nc2ccc(Cl)cc2)s1)c1ccccc1F	1670
N#Cc1cccc(Nc2ncc(C(=O)c3ccccc3C(F)(F)F)s2)c1	20
O=C(c1cccc(F)c1)c1cnc(Nc2cccc(C(F)(F)F)c2)s1	885
COc1cccc(Nc2ncc(C(=O)c3ccccc3F)s2)c1	1000
CCc1ccccc1C(=O)c1cnc(Nc2cccc(C(F)(F)F)c2)s1	32
Cc1cc(C(=O)c2cnc(Nc3cccc(C#N)c3)s2)c(C)s1	14
N#Cc1cccc(Nc2ncc(C(=O)c3ccccc3F)s2)c1	19
COc1ccc(C(=O)c2cnc(Nc3cccc(C#N)c3)s2)cc1	2230

Now from value to compound:

IC50 [nM]	SMILES
138	O=C(c1cnc(Nc2cccc(C(F)(F)F)c2)s1)c1ccccc1C(F)(F)F
63	Cc1ccccc1C(=O)c1cnc(Nc2cccc(C(F)(F)F)c2)s1
4.2	Cc1ccccc1C(=O)c1cnc(Nc2cccc(C#N)c2)s1
2.8	CCc1ccccc1C(=O)c1cnc(Nc2cccc(C#N)c2)s1
